Laboratory results published in US9420813B2, “Sweetener” (AJINOMOTO CO., INC., priority 2007, dated 2016).
*1 amine or outer side, *2 acyl side, *3 side chain or, on linkers, in order; H or OH if unused. Where no end group is shown, it is not given here. [ ]: non-standard residue; d: D form. γGlu = O=C(O)[C@H](CCC(=O)[*:2])N[*:1]; Abu = CC[C@H](N)C(=O)O

What was measured:
human calcium receptor = target: T1, human calcium receptor (Homo sapiens, UniProt P41180); test: Calcium receptor-activating effect, Ca ion concentration-dependent Cl ionic current in Xenopus laevis oocyte expression system; format: cell-based; conditions: for Activity (lowest concentration at which current is detected): peptide added at 1,000 to 0.1 μM, Ca ion concentration-dependent Cl response current, oocytes voltage-clamped at −70 mV
T1 construct: expressed in transfected cells; host or cells: Xenopus laevis oocytes injected with receptor cRNA; the gene was amplified by PCR from human kidney cDNA (Clontech) and cloned in pBR322
T1 sequence (P41180 20-1078): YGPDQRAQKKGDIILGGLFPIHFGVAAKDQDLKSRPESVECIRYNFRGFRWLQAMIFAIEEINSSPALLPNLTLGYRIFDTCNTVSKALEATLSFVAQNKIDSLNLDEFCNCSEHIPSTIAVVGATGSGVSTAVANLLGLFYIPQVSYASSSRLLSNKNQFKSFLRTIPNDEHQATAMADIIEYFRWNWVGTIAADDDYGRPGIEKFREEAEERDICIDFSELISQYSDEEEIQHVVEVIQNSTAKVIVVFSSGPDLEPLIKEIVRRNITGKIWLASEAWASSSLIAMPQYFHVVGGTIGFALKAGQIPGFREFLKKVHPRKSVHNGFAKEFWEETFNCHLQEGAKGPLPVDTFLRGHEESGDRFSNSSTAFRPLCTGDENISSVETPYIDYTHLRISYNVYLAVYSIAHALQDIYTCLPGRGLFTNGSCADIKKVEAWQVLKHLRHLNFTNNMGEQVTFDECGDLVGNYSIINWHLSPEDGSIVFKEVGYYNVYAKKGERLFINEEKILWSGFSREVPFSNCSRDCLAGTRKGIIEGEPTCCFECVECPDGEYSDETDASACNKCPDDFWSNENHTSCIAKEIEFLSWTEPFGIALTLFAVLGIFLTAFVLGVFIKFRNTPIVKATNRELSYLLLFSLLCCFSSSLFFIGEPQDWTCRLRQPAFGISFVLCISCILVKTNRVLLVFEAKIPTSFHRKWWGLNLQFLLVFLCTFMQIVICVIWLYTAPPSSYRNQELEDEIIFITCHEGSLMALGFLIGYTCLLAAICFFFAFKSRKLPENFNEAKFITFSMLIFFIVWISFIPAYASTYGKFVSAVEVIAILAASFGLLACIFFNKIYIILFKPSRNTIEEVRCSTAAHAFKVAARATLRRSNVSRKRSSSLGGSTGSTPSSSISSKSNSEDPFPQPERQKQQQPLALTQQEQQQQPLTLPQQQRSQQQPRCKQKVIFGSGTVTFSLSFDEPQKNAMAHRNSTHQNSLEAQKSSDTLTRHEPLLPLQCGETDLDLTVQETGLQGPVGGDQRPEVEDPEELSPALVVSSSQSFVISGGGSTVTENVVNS
Procedure: For evaluation of the calcium receptor-activating effect, Ca ion concentration-dependent Cl ionic current measuring method using a Xenopus laevis oocyte expression system was used. If activator is added to Xenopus laevis oocytes in which the calcium receptor is expressed, intracellular Ca ions increase. Then, the Ca ion concentration-dependent Cl channel opens, and the intracellular current value changes as an ionic current. By measuring the change in the intracellular current value, whether the calcium receptor-activating effect is present or not can be determined.
Specifically, the abdomen of Xenopus laevis was opened, and an egg batch was taken out and then treated with a 1% collagenase solution at 20° C. for 2 hours to obtain individual oocytes. Into each oocyte, 50 nl of 1 μg/μl receptor cRNA or 50 nl of sterilized water per oocyte were injected by using a micro glass capillary, and the oocytes were cultured at 18° C. for 2 to 3 days. For the culture, a solution obtained by adding 2 mM of pyruvic acid, 10 U/ml of penicillin and 10 μg/ml of streptomycin to the solution in Reference Example 2 was used. After the culture, a test solution was added to the oocytes injected with cRNA or sterilized water. Electrophysiological measurement was performed by using an amplifier Geneclamp 500 (manufactured by Axon) and recording software AxoScope 9.0 (manufactured by Axon). The oocytes were voltage-clamped at −70 mV by the double electrode voltage clamp method, and the intracellular current via the Ca ion concentration-dependent Cl ion was measured. The maximum value of the intracellular currents was defined as the response current value.
The ability of L-amino acids to activate the calcium receptor was evaluated by using the method described in Reference Example 6. That is, oocytes injected with cRNA of the calcium receptor or sterilized water were prepared, and voltage-clamped at −70 mV by the double electrode voltage clamp method. To the voltage-clamped oocytes, alanine (10 mM), arginine (10 mM), asparagine (10 mM), aspartic acid (10 mM), cysteine (10 mM), glutamine (10 mM), glutamic acid (10 mM), glycine (10 mM), histidine (10 mM), isoleucine (10 mM), leucine (10 mM), lysine (10 mM), methionine (10 mM), phenylalanine (10 mM), proline (10 mM), serine (10 mM), threonine (10 mM), tryptophan (10 mM), tyrosine (10 mM), valine (10 mM), ornithine (10 mM), taurine (10 mM) or hydroxyproline (10 mM) was added, and Ca ion concentration-dependent Cl response current was measured. […] 25, 2000, 97(9): 4814-9.
The effect of D-cysteine for activating a calcium receptor was evaluated by using the method described in Reference Example 6. That is, oocytes injected with cRNA of the calcium receptor or sterilized water were prepared, and voltage-clamped at −70 mV by the double electrode voltage clamp method. To the voltage-clamped oocytes, D-cysteine (10 mM), L-cysteine (10 mM), D-tryptophan (10 mM) or L-tryptophan (10 mM) was added, and Ca ion concentration-dependent Cl response current was measured.
The effect of peptide for activating calcium receptor was evaluated by using the method described in Reference Example 6. That is, oocytes injected with cRNA of the calcium receptor or sterilized water were prepared, and voltage-clamped at −70 mV by the double electrode voltage clamp method. To the voltage-clamped oocytes, γ-Glu-Cys-Gly (50 μM), γ-Glu-Cys(SNO)-Gly (50 μM), γ-Glu-Ala (50 μM), γ-Glu-Gly (500 μM), γ-Glu-Cys (50 μM), γ-Glu-Met (500 μM), γ-Glu-Thr (50 μM), γ-Glu-Val (50 μM), γ-Glu-Orn (500 μM), Asp-Gly (1 mM), Cys-Gly (1 mM), Cys-Met (1 mM), Glu-Cys (50 μM), Gly-Cys (500 μM) or Leu-Asp (1 mM) was added, and Ca ion concentration-dependent Cl response current was measured.
The ability of a peptide to activate calcium receptor was evaluated in the same manner as that of Reference Example 10.

[1] = Quantitative sensory evaluation test, intensity of kokumi-imparting activity; design: key to Kokumi intensity, initial and middle taste / Kokumi intensity, aftertaste / Taste profile: *: Unmeasurable: kokumi-imparting activity is too strong to measure by sensory evaluation
Procedure: The quantitative sensory evaluation test was performed as follows. […] When a sample is acidic when dissolved, the pH was adjusted with NaOH to pH 6.8 to 7.2 before use. Because it is known that glutathione can impart kokumi to a food, glutathione was used as a comparative control. The test was performed with n=3 based on the following sensory evaluation scores: control was given 0 points, glutathione addition was given 3 points. […] It should be noted that the term “initial and middle taste” is a collective term of the initial taste and middle taste.
The quantitative sensory evaluation test was performed as follows. […] When a sample is acidic when dissolved, the pH of the sample was adjusted with NaOH to pH 6.8 to 7.2 before use. The test was performed with n=5 based on the following sensory evaluation scores: control was given 0 point and glutathione addition was given 3 points.
The quantitative sensory evaluation test was performed as follows. […] As for a sample which is acidic when the sample is dissolved, pH of the sample was adjusted with NaOH to pH 6.8 to 7.2 before use. The test was performed with n=12 based on the following sensory evaluation scores: control: 0 point and glutathione addition: 3 points.

[2] = sample 0.01 g/dl, control 0, glutathione 3 points, n=5
[3] = sample 0.01 g/dl, control 0, glutathione 3 points, n=12
[4] = sample 0.1 g/dl, control 0, glutathione 3 points, n=3
[5] = sample 0.1 g/dl, control 0, glutathione 3 points, n=5
[6] = sample 0.1 g/dl, control 0, glutathione 3 points, n=12

[γGlu]-Val-Gly
Activity (lowest concentration at which current is detected) (human calcium receptor): 0.1 µM
Kokumi intensity, aftertaste [1, 2]: 3.0 points
Kokumi intensity, initial and middle taste [1, 2]: 3.0 points
Kokumi intensity, aftertaste [1, 3]: 3.0 points
Kokumi intensity, initial and middle taste [1, 3]: 3.0 points
Kokumi intensity, aftertaste ([1]; sample 0.1 g/dl, n=5, symbol): *
Kokumi intensity, initial and middle taste ([1]; sample 0.1 g/dl, n=5, symbol): *
Taste profile ([1]; sample 0.1 g/dl, n=5, symbol): *

N[C@@H](CCC(=O)N[C@@H](CS)C(=O)NCC(=O)O)C(=O)O [γ-Glu-Cys-Gly, reference compound]
effect for activating calcium receptor (Cl response current) (human calcium receptor; peptide added at 50 μM): definite effect for activating calcium receptor
Kokumi intensity, aftertaste [1, 4]: 3.0 points
Kokumi intensity, initial and middle taste [1, 4]: 3.0 points
Kokumi intensity, aftertaste [1, 5]: 3.0 points
Kokumi intensity, initial and middle taste [1, 5]: 3.0 points
Kokumi intensity, aftertaste [1, 6]: 3.0 points
Kokumi intensity, initial and middle taste [1, 6]: 3.0 points
Evaluation comments ([1]; sample 0.1 g/dl, n=3): Thickness,
Taste profile ([1]; sample 0.1 g/dl, n=5): Thickness,
Taste profile ([1]; sample 0.1 g/dl, n=12): Thickness,

[γGlu]-[Abu]-Gly
Activity (lowest concentration at which current is detected) (human calcium receptor): 3 µM
Kokumi intensity, aftertaste [1, 3]: 2.0 points
Kokumi intensity, initial and middle taste [1, 3]: 3.0 points
